Results: article PMC4734766, “Pentamidine Is Not a Permeant but a Nanomolar Inhibitor of the Trypanosoma brucei Aquaglyceroporin-2” (PLoS Pathogens, 2016)
Where a chain is given by its changes, count along the chain named. pIC50: −log10 of the molar value. Read-outs that look alike come from different tables or passages of the source.

Key:
TbAQP2 = molecular target: T1, TbAQP2 (Trypanosoma brucei brucei, UniProt Q6ZXT3)
T1 sequence (Q6ZXT3 1-312): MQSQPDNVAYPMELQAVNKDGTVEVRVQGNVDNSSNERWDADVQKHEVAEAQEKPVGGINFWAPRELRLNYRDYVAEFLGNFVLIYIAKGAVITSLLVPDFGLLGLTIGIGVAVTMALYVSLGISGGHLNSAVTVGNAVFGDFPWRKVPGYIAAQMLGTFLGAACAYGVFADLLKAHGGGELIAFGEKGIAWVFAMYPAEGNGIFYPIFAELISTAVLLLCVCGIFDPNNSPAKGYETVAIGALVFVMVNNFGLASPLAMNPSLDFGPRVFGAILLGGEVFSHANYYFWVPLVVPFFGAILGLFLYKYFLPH

TbAQP2 Leu264Arg = molecular target: T2, TbAQP2 Leu264Arg (Trypanosoma brucei brucei, UniProt Q6ZXT3, L264R); type: cell-based
T2 sequence (Q6ZXT3 1-312 L264R): T1 sequence (Q6ZXT3 1-312) with L264R

TbAQP2 Asp265Ala = TbAQP2 Asp265Ala (Trypanosoma brucei brucei, UniProt Q6ZXT3, D265A); assay: cell-based; conditions: read-out: IC50, pentamidine inhibition of TbAQP2 Asp265Ala

## NCC(O)CO (centres unmarked) [3-aminopropane-1,2-diol]
TbAQP2; pH 9.2
  rate of passage through TbAQP2 relative to glycerol: two thirds the rate of glycerol

## N=CN [formamidine]
TbAQP2; not told
  permeability of TbAQP2 for small cations: impermeable

## N=C(N)c1ccc(OCCCCCOc2ccc(C(=N)N)cc2)cc1 [pentamidine]
TbAQP2 Leu264Arg
  inhibition of TbAQP2 Leu264Arg: failed to inhibit
TbAQP2 Asp265Ala; pH 2.5
  pIC50: 5.24
TbAQP2 Asp265Ala; pH 7.2
  pIC50: 5.35
